As usually defined, the IC50 is the midpoint of a concentration-inhibition curve.

The text below walks through data of EP2792359A1, “Treatment of L-DOPA-induced dyskinesia with OPC-14523 or OPC-34712” (Merz Pharma GmbH & Co. KGaA, priority 2013, dated 2014).

Each structure is given as a SMILES string.

Series [1] has as its system 6-OHDA-lesioned rats. Kind of series: L-DOPA induced dyskinesia (AIM scores) in the 6-OHDA-lesioned rat model of Parkinson's disease. It counts as in vivo, Sprague Dawley rats. The note with it: for reduction of LID: comparators, data not shown, dose not given.
For series [2], the target named is T1, MAO-B (Homo sapiens, UniProt P27338).
T1 sequence (P27338 1-520): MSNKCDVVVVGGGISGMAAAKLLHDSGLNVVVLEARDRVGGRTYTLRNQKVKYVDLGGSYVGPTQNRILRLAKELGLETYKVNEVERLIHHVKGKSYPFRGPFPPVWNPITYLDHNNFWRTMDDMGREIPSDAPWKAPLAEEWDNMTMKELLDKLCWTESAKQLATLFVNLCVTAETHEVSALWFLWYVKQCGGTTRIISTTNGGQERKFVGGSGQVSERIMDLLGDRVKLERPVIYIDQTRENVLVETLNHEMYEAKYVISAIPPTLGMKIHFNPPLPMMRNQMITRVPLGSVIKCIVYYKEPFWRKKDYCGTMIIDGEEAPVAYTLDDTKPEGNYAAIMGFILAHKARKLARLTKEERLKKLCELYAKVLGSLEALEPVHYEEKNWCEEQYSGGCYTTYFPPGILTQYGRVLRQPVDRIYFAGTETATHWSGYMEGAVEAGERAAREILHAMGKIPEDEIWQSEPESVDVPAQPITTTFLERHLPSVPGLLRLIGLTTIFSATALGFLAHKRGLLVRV
The conditions noted are these: cited from earlier work.

For series [3], the target named is T2, 5-HT1B (Homo sapiens, UniProt P28222).
T2 construct: host or cells: CHO-K1
Kind of series: 5-HT1B cAMP HTRF assay (agonist test, Euroscreen FAST-0501C). It counts as cell-based. The method, then:
(§1) A. In vitro 5-HT1A/B Activity Measurements: 5-HT1A/B cAMP HTRF assay (performed at Euroscreen, order no.: 5-HT1A:FAST-0500C, 5-HT1B: FAST-0501 C)
(§2) CHO-K1 cells expressing each human recombinant receptor (see Table 1) grown prior to the test in media without antibiotic were detached by gentle flushing with PBS-EDTA, recovered by centrifugation and resuspended in assay buffer. Dose response curves are performed in parallel with the reference compounds.
(§3) For agonist tests (96well): 12 µl of cells were mixed with 6 µl of the test compound at increasing concentrations and 6 µl of forskolin then incubated 30 min at room temperature. After addition of the lysis buffer and 1 hour incubation, cAMP concentrations were estimated, according to the manufacturer specification, with the HTRF kit (Cisbio).
Assay buffer consisted of: 5 mM KCI, 1.25 mM MgSO4, 124 mM NaCl, 25 mM HEPES, 13.3 mM Glucose, 1.25 mM KH2PO4, 1.45 mM CaCl2, and 0.5 g/I BSA. PBS-EDTA contained 137 mM NaCl, 2.7 mM KCI, 10 mM Na2HPO4, 2 mM KH2PO4 and 5 mM EDTA. Cell lines used were derived from CHO-K1 stably expressing the human receptors needed for the pharmacological testing (see Table 1). 5-Carboxamidotryptamine (5-CT) was used as reference agonist.
On each day of experimentation, reference compounds were tested at several concentrations in duplicate (n=2) to obtain a dose-response curve and an estimated EC50 value.
Reference values thus obtained for the test were compared to historical values obtained from the same receptor and used to validate the experimental session. […] For replicate determinations, the maximum variability tolerated in the test was of +/-20% around the average of the replicates.
(§4) Dose-response data from test compounds were analyzed with XLfit (IDBS) software using nonlinear regression applied to a sigmoidal dose-response model (4 Parameter Fit).
(§5) Agonist activity of test compounds is expressed as a percentage of the activity of the reference agonist at a saturating concentration.
(In general: In TR-FRET formats the signal depends on donor and acceptor labels being close together.)

The target in series [4] is T3, Muscarinic acetylcholine receptors M2 (Homo sapiens, UniProt P08172).
T3 sequence (P08172 1-466): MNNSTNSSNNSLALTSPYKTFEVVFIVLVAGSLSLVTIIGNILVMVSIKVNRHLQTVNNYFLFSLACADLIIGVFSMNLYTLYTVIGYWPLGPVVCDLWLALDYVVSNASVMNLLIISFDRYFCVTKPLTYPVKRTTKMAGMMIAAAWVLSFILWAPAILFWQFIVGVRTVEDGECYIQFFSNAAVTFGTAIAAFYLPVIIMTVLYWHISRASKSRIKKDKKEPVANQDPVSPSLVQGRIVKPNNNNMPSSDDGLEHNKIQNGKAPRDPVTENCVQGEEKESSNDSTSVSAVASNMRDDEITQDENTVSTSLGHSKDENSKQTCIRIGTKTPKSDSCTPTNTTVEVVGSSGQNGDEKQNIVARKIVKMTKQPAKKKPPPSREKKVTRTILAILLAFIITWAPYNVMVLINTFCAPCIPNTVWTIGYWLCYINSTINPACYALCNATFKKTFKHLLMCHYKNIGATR
The note with it: cited from earlier work.

For series [5] the following is noted: cited from earlier work.
The target in series [6] is T4, Muscarinic acetylcholine receptors M1 (Homo sapiens, UniProt P11229).
T4 sequence (P11229 1-460): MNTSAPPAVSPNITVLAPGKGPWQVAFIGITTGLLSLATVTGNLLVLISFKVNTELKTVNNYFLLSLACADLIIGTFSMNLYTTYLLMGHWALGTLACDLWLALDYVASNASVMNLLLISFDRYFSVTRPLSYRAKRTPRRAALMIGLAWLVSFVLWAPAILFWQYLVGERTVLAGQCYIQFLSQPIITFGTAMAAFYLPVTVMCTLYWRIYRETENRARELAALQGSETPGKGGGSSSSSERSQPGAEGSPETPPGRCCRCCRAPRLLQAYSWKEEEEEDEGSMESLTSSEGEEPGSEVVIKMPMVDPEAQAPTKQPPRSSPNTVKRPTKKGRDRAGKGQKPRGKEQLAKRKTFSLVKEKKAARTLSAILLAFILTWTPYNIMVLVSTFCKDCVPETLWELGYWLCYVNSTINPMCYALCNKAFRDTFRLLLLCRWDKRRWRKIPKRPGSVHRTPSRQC
The conditions noted are these: cited from earlier work.

Series [7] deals with T5, 5-HT2B (Homo sapiens, UniProt P41595).
T5 construct: host or cells: CHO-K1
Kind of series: 5-HT2B IP-One HTRF assay (Euroscreen FAST-0506I). It counts as cell-based. The method, then:
B. 5-HT2B assay (performed at Euroscreen, order no.: FAST-0506I):
The 5-HT2B [00136] IP-One HTRF assay was conducted with recombinant cell lines, receptor accession numbers, cellular background and reference compounds are shown in Table 1.
Cells expressing human recombinant 5-HT2B (FAST-506I) grown to mid-log phase in culture media without antibiotics will be detached with PBS-EDTA, centrifuged and resuspended in medium without antibiotics buffer. 20,000 cells will be distributed in a 96 well plate and incubated overnight at 37°C with 5% CO2.
For agonist testing, the medium will be removed and 20 µl of assay buffer plus 20 µl of test compound or reference agonist will be added in each well. The plate will be incubated for 60 min at 37°C with 5% CO2.
For antagonist testing, 20 µl of test compound or reference antagonist is added and the plate is incubated for 15 min. at 37°C in a humidified atmosphere of 95% air with 5% CO2, then 20 µl of reference agonist at a final concentration corresponding to the historical EC80 is added. […]
IP1-D2 reagent and anti-IP1 cryptate reagents will be then dispensed in the wells and DeltaF percentage values will be then calculated following the manufacturer (CisBio) recommendations. […]
as §4

Series [8] deals with Muscarinic acetylcholine receptors M3 (Homo sapiens, UniProt P20309). The conditions noted are these: cited from earlier work.
The target of series [9] is T6, MAO-A (Homo sapiens, UniProt P21397).
T6 sequence (P21397 1-527): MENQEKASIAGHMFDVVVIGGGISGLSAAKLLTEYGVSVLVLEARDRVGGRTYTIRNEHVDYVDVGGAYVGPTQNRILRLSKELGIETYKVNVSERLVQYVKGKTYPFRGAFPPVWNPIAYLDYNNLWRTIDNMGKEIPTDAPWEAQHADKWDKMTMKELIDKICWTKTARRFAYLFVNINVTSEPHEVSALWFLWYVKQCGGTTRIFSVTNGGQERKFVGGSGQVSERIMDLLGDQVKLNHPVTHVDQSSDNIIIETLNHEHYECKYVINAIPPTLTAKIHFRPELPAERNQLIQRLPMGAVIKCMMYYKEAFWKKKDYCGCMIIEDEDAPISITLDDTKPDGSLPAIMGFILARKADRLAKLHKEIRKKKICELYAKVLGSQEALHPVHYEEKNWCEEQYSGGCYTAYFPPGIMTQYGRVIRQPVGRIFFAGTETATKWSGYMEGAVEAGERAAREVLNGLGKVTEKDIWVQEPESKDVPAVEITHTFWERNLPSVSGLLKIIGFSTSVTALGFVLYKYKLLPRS
The conditions noted are these: cited from earlier work.

In series [10] the test system is NMDA receptor. The note with it: cited from earlier work.
Series [11] deals with T7, 5-HT1A (Homo sapiens, UniProt P08908).
T7 construct: host or cells: CHO-K1
T7 sequence (P08908 1-422): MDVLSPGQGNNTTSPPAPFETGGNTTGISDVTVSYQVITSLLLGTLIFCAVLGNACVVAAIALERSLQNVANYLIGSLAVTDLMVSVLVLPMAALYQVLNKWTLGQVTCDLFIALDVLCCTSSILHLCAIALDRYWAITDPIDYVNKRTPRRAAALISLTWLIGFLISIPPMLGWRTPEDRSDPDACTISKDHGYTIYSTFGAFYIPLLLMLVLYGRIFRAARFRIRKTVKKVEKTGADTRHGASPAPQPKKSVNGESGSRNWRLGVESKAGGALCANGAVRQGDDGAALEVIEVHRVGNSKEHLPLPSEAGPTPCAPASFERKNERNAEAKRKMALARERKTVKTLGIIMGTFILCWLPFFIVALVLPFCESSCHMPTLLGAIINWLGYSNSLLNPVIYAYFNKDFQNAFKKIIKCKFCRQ
Kind of series: 5-HT1A cAMP HTRF assay (agonist test, Euroscreen FAST-0500C). It counts as cell-based. How it is done:
as §1, §2, §3
Assay buffer consisted of: 5 mM KCI, 1.25 mM MgSO4, 124 mM NaCl, 25 mM HEPES, 13.3 mM Glucose, 1.25 mM KH2PO4, 1.45 mM CaCl2, and 0.5 g/I BSA. PBS-EDTA contained 137 mM NaCl, 2.7 mM KCI, 10 mM Na2HPO4, 2 mM KH2PO4 and 5 mM EDTA. […]
as §4, §5

T2 sequence (P28222 whole entry): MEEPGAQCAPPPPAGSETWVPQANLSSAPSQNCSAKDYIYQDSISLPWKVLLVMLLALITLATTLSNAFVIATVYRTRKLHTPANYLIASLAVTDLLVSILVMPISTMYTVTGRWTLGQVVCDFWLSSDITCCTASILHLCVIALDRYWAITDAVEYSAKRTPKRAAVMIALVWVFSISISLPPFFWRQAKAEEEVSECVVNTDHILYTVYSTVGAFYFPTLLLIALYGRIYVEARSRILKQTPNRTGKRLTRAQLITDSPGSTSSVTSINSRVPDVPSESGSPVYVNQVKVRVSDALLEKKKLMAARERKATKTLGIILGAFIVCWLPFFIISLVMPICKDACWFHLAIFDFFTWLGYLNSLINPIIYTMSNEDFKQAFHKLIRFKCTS
Chain of Muscarinic acetylcholine receptors M3 (P20309 whole entry): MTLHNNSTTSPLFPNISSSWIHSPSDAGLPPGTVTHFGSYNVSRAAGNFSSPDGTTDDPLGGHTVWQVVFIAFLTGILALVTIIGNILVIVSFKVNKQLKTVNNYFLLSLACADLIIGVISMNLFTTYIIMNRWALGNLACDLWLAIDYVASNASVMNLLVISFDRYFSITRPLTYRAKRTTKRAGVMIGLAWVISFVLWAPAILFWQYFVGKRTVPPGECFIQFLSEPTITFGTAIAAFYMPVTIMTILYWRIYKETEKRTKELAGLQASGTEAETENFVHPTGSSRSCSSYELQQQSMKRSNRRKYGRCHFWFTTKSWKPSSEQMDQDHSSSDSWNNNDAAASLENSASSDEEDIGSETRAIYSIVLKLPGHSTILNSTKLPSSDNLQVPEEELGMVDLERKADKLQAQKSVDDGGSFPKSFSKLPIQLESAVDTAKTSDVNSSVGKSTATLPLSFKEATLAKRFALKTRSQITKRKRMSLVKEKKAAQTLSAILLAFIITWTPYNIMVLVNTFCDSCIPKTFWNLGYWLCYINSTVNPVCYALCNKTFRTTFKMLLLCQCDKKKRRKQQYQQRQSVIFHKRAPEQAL
T5 sequence (P41595 whole entry): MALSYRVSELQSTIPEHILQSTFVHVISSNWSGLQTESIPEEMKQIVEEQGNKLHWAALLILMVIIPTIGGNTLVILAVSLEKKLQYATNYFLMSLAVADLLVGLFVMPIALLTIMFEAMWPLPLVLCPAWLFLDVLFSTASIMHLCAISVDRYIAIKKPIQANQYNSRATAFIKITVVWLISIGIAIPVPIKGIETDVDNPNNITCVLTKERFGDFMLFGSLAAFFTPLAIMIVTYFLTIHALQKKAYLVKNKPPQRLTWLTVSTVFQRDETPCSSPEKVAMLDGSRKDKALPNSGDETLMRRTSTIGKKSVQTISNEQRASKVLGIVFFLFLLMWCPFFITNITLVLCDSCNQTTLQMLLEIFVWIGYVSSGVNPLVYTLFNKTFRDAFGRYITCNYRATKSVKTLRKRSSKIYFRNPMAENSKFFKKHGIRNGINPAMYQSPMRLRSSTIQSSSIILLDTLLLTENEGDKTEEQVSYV

On to `NC12CC3CC(CC(C3)C1)C2` [Amantadine], for which the “reduction of LID” value in series [1] is recorded as -25%.
Still for that read-out and setting: in the case of `c1cc2c(c(N3CCNCC3)c1)OCCO2` [Eltoprazine] it was -60%.
In the case of `COc1cccc2c1CCC(=O)N2CCCN1CCN(c2cccc(Cl)c2)CC1` [OPC-14523, 1-[3-[4-(3-Chlorophenyl)piperazin-1-yl]propyl]-5-methoxy-1,2,3,4-tetrahydroquinolin-2-one], the “activity at MAO-B” value in series [2] was “inactive”. The “effect on LID (AIM scores)” value in [1] (10 mg/kg p.o., 10 min before L-DOPA/benserazide 6/15 mg/kg i.p.) is “strongly reduced LID”. In addition, the Emax in series [3] (0.5 h, CHO-K1 cells, human recombinant receptor, percentage of the activity of reference agonist 5-CT at saturating concentration, read-out: partial agonism, efficacy at 5-HT1B) was around 60%; in series [11] (0.5 h, CHO-K1 cells, human recombinant receptor, percentage of the activity of reference agonist 5-CT at saturating concentration, read-out: partial agonism, efficacy at 5-HT1A), around 60%. In addition, the EC50 in series [3] (CHO-K1 cells, human recombinant receptor, cAMP with forskolin, read-out: partial agonism at 5-HT1B (potency)) was 7 nM; in [11], 26 nM. Further, in [3] (human recombinant cell lines), the “action at the 5-HT1B receptor” value was “partial agonist”. The “activity at Muscarinic acetylcholine receptor M2” value in series [4] is “inactive”. In addition, the “adverse events in Phase 1 studies” value in series [5] was “no adverse events”. The “activity at Muscarinic acetylcholine receptor M1” value in [6] was “inactive”. Further, the midpoint of inhibition in [7], the IC50, lay at 160 nM. For the same compound, in series [8], the “activity at Muscarinic acetylcholine receptor M3” value is “inactive”. The “activity at MAO-A” value in series [9] is “inactive”. Further, the “activity at NMDA receptor” value in series [10] is “inactive”.
